Measurements from US11746087B1, “C4-carboxylic acid-substituted tryptamine derivatives and methods of using” (priority 2022, dated 2023).

Columns and labels:
[1] = biological target: T1, CHRM1 (Homo sapiens, UniProt P11229); test: Calcium secondary messenger assay, agonist mode; type: cell-based
T1 sequence (P11229 1-460): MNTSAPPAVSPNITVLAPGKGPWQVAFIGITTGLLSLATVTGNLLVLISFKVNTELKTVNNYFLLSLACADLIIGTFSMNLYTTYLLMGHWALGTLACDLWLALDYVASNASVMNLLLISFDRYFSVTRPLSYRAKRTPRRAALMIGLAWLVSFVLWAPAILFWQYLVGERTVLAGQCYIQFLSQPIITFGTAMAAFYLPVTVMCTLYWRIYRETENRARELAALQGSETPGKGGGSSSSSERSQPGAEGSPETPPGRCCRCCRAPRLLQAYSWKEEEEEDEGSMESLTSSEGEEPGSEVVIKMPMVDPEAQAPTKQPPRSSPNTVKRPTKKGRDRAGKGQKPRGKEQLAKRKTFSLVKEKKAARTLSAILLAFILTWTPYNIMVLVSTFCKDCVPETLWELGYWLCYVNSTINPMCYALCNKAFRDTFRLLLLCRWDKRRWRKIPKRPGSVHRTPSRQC

[2] = biological target: T1, CHRM1; test: cell-based
[3] = biological target: T2, HTR1A (5-HT1A) (Homo sapiens, UniProt P08908); test: EFC-based cAMP secondary messenger assay, antagonist mode; type: cell-based
T2 sequence (P08908 1-422): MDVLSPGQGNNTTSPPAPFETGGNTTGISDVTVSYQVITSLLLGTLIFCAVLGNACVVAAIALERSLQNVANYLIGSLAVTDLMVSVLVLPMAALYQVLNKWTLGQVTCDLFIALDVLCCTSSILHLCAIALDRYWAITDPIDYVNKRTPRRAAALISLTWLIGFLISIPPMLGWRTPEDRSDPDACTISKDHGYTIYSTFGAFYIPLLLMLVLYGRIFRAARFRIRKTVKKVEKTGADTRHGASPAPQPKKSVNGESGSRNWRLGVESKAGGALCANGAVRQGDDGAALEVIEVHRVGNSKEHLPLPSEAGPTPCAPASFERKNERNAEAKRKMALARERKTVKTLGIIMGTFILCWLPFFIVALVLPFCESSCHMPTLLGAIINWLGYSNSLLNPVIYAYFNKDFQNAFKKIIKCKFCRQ

[4] = biological target: T3, CHRM2 (Homo sapiens, UniProt P08172); test: EFC-based cAMP secondary messenger assay, agonist mode; type: cell-based
T3 sequence (P08172 1-466): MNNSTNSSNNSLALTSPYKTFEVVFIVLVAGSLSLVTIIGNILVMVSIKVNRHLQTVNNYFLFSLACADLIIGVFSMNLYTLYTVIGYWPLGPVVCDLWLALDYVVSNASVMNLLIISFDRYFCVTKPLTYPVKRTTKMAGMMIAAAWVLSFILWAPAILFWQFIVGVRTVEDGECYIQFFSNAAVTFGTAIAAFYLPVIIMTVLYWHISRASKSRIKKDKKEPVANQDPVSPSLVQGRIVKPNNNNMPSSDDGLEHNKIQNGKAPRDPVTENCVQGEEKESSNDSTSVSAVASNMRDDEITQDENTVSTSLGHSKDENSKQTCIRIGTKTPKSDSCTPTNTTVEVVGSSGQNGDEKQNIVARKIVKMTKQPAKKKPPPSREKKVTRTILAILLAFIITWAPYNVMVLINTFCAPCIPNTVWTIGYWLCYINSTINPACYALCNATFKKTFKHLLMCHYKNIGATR

[5] = biological target: T4, CNR1 (Homo sapiens, UniProt P21554); test: as above; type: cell-based
T4 sequence (P21554 whole entry): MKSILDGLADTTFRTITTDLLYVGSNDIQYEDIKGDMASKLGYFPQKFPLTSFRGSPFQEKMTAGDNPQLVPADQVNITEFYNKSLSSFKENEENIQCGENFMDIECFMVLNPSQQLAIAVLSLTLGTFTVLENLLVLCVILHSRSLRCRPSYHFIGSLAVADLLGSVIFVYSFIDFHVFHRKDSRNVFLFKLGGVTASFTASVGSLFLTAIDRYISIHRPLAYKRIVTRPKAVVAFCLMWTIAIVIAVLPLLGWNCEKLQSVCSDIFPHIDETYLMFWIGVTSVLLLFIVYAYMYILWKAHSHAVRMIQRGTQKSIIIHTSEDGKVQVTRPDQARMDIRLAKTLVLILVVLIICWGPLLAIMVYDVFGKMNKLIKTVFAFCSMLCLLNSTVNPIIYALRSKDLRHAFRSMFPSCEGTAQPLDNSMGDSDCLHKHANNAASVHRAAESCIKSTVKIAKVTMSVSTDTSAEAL

[6] = biological target: T5, NMDAR (Homo sapiens, UniProt Q05586+Q13224); test: Ion channel assay (FLIPR membrane potential), opener; type: cell-based
T5 sequence (Q13224 27-1484, other chains not shown): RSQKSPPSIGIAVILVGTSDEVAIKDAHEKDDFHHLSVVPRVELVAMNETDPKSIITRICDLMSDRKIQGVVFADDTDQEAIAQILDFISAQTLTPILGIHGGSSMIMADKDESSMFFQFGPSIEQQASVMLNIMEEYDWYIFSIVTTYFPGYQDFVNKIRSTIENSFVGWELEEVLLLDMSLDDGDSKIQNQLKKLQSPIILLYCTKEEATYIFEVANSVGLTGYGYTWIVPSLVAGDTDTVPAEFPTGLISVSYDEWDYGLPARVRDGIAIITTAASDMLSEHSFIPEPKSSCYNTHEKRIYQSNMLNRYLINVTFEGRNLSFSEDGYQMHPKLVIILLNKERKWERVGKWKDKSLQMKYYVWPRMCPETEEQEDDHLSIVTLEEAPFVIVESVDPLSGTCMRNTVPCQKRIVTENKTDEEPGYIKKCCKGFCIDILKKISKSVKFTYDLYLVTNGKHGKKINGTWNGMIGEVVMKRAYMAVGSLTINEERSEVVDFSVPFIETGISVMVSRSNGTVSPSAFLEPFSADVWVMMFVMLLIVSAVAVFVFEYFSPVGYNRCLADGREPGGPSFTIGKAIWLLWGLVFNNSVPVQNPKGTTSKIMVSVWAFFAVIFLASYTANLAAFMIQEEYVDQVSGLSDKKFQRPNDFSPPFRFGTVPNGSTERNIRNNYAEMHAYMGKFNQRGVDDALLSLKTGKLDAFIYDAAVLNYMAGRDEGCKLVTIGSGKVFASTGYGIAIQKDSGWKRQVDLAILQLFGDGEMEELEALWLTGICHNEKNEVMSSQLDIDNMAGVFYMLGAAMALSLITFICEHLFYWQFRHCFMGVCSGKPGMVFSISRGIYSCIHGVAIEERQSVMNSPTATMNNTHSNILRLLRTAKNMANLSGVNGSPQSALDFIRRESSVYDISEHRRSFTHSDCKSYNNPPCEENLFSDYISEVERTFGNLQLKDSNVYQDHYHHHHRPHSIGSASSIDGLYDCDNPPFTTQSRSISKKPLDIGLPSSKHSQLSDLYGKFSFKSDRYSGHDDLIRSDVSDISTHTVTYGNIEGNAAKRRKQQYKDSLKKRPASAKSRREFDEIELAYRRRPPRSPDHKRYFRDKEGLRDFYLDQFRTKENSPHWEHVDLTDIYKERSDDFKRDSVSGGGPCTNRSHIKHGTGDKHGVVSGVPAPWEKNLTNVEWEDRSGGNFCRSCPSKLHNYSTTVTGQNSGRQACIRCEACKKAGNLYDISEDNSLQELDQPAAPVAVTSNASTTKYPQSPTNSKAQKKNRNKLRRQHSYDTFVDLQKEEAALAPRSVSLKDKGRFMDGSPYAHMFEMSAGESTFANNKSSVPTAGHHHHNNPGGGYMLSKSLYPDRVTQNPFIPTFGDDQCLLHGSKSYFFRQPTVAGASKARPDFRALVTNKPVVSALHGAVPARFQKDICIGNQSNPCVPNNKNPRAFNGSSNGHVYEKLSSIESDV

[7] = biological target: T6, ADRA1A (Homo sapiens, UniProt P35348); test: Calcium secondary messenger assay, agonist mode; type: cell-based
T6 sequence (P35348 1-466): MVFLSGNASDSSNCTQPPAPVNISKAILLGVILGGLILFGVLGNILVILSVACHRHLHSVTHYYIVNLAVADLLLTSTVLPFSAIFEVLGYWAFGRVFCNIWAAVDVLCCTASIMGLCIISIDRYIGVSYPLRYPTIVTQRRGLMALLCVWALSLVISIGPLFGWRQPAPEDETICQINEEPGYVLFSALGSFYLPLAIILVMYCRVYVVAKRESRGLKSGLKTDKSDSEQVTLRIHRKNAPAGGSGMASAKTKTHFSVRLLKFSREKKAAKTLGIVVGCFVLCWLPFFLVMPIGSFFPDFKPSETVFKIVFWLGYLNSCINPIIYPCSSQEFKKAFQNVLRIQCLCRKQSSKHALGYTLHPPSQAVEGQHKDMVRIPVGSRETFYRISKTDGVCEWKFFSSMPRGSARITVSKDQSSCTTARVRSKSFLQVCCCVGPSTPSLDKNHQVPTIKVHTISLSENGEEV

[8] = biological target: HTR2B (5-HT2B) (Homo sapiens, UniProt P41595); test: Calcium secondary messenger assay, antagonist mode; type: cell-based
HTR2B (5-HT2B), sequence (P41595 whole entry): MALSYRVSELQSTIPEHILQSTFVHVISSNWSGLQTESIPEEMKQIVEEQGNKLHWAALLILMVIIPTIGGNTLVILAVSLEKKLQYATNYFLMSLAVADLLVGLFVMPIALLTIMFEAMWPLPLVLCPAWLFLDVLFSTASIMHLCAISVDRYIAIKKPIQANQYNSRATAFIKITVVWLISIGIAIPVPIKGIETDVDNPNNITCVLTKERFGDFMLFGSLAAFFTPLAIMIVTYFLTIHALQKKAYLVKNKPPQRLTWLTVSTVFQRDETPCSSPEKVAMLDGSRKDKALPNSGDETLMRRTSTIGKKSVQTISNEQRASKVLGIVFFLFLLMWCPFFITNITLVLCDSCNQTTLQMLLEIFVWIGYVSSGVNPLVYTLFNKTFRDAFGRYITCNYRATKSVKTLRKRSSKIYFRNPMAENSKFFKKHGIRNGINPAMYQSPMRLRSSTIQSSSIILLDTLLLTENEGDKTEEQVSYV

[9] = biological target: DRD1 (Homo sapiens, UniProt P21728); test: EFC-based cAMP secondary messenger assay, antagonist mode; type: cell-based
DRD1, sequence (P21728 whole entry): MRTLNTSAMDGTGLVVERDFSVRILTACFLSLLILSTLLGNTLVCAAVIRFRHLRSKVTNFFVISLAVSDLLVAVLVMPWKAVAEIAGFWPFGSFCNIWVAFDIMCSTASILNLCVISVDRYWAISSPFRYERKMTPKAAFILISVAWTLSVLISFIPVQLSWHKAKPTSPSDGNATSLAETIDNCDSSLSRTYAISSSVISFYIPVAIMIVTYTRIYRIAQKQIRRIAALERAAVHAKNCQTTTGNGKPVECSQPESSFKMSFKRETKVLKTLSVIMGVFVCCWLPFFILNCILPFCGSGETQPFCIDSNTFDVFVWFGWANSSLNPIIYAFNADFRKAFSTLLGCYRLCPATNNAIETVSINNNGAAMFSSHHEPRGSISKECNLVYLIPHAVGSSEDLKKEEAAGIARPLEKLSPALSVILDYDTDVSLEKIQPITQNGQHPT

[10] = biological target: SERT (Homo sapiens, UniProt P31645); test: cell-based; settings: transporter
SERT, sequence (P31645 whole entry): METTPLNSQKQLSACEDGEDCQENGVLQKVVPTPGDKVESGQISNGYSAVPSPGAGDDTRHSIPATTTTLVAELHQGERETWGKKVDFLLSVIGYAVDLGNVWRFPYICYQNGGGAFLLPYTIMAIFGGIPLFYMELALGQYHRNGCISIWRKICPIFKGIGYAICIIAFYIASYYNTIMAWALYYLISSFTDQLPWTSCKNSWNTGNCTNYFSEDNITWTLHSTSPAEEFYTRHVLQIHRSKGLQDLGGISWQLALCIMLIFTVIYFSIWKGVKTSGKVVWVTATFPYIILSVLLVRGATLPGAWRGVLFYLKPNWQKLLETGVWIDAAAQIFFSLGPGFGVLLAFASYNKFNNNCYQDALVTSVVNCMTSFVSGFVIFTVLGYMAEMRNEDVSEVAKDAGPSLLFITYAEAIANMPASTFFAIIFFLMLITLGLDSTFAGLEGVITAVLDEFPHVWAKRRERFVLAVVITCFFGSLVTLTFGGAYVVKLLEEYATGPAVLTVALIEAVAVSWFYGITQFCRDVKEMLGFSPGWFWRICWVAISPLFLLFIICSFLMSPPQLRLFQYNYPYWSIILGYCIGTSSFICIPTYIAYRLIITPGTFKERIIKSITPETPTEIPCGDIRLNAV

[11] = biological target: HTR1B (5-HTR1B) (Homo sapiens, UniProt P28222); test: EFC-based cAMP secondary messenger assay, antagonist mode; type: cell-based
HTR1B (5-HTR1B), sequence (P28222 whole entry): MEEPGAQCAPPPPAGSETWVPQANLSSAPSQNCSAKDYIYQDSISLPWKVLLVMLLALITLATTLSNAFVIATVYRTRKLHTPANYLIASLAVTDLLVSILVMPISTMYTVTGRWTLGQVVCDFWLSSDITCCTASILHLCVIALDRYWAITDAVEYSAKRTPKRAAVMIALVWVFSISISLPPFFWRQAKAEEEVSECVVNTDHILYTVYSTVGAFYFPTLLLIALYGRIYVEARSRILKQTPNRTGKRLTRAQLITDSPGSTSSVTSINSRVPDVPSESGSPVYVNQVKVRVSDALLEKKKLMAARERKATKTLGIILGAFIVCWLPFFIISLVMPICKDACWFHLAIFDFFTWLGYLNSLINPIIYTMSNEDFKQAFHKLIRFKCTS

[12] = biological target: T5, NMDAR; test: Ion channel assay (FLIPR membrane potential), blocker; type: cell-based
[13] = biological target: T4, CNR1; test: EFC-based cAMP secondary messenger assay, antagonist mode; type: cell-based

| SMILES | EC50 [1] [µM] | IC50 ([2]; CHRM1, GPCR, ANT (antagonist)) [µM] | IC50 [3] [µM] | EC50 [4] [µM] | EC50 [5] [µM] | EC50 [6] [µM] | EC50 [7] [µM] | IC50 [8] [µM] | IC50 [9] [µM] | IC50 ([10]; BL (blocker)) [µM] | IC50 [11] [µM] | IC50 [12] [µM] | IC50 [13] [µM] | IC50 ([2]; CHRM1, GPCR, antagonist (ANT)) [µM] | IC50 ([10]; blocker (BL)) [µM] |
| --- | --- | --- | --- | --- | --- | --- | --- | --- | --- | --- | --- | --- | --- | --- | --- |
| CN(C)CCc1c[nH]c2cccc(OC(=O)c3ccc(Br)cc3)c12 [C(I)] | > 100 | 22.9 | > 100 | > 100 | 54.2 | > 100 | > 100 | 4.94 | 24.5 | > 100 | > 100 | > 100 | > 100 |  |  |
| CN(C)CCc1c[nH]c2cccc(OC(=O)CC3CC3)c12 [C(IV)] | > 100 | > 100 | > 100 | > 100 | > 100 | > 100 | > 100 | 0.059 | 32.9 | 67.9 | > 100 | > 100 | > 100 |  |  |
| COc1ccc(C(=O)Oc2cccc3[nH]cc(CCN(C)C)c23)cc1 [C(V)] | > 100 |  | > 100 | > 100 | > 100 | > 100 | > 100 | 0.012 | 12 |  | > 100 | > 100 | > 100 | > 100 | > 100 |
| CN(C)CCc1c[nH]c2cccc(OC(=O)c3c(F)c(F)c(F)c(F)c3F)c12 [C(VI)] | > 100 | > 100 | > 100 | > 100 | 62.9 | > 100 | 34.4 | 0.03 | 51.6 | 34.3 | > 100 | > 100 | > 100 |  |  |
| CN(C)CCc1c[nH]c2cccc(OC(=O)c3cccc4c3OCCO4)c12 [C(XX)] | > 100 | > 100 | > 100 | > 100 | > 100 | > 100 | > 100 | 0.016 | 11.1 | 14.7 | > 100 | > 100 | > 100 |  |  |
